Target: T1, human RORgT (Homo sapiens, UniProt P51449)
T1 construct: expressed in transfected cells
T1 sequence (P51449 267-516): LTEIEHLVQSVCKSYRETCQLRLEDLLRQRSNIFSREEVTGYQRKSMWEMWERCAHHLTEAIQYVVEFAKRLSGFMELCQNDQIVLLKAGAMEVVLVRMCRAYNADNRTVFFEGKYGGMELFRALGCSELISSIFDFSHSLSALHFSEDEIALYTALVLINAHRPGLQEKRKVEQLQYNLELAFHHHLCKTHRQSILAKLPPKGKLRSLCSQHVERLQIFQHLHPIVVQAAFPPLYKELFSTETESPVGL
Experiment: RORgT Gal4 Luciferase Reporter Gene Assay
Assay type: cell-based
Conditions: engineered Jurkat cells overexpressing RORgT (LBD or full length) fused with Gal4 Luc reporter; 18 hours at 37° C.; luminescence
Summary of the method: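 Jurkat cells expressing Gal4 Luc with either RORgT LBD (aa267-516) or full-length human RORgT, 10,000 cells/well, treated with compound (40 µM to 0.67 nM final, 3-fold dilutions) for 18 h at 37° C. Steady-Glo luminescence read; inhibition of constitutive activity as % signal-window reduction relative to a control compound.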

Row | EC50 [nM] | Molecule
1 | 53 | CC(=O)N1CCC(C(=O)N2CC[C@@]3(S(=O)(=O)c4ccc(F)cc4)c4ccc(OCc5cc(F)c(F)cc5Cl)cc4CC[C@@H]23)CC1 [Example 219, 1-{4-[(3aR,9bR)-7-[(2-chloro-4,5-difluorophenyl)methoxy]-9b-(4-fluorobenzenesulfonyl)-1H,2H,3H,3aH,4H,5H,9bH-benzo[e]indole-3-carbonyl]piperidin-1-yl}ethan-1-one]
2 | 13 | NC(=O)N1CCC(C(=O)N2CC[C@@]3(S(=O)(=O)c4ccc(F)cc4)c4ccc(OCc5c(F)cc(F)cc5Cl)cc4CC[C@@H]23)CC1 [Example 220, 4-[(3aR,9bR)-7-[(2-chloro-4,6-difluorophenyl)methoxy]-9b-(4-fluorobenzenesulfonyl)-1H,2H,3H,3aH,4H,5H,9bH-benzo[e]indole-3-carbonyl]piperidine-1-carboxamide]
3 | 34 | O=C(CN1CCS(=O)(=O)CC1)N1CC[C@@]2(S(=O)(=O)c3ccc(F)cc3)c3ccc(OCc4cc(F)c(F)cc4Cl)cc3CC[C@@H]12 [Example 221, 4-{2-[(3aR,9bR)-7-[(2-chloro-4,5-difluorophenyl)methoxy]-9b-(4-fluorobenzenesulfonyl)-1H,2H,3H,3aH,4H,5H,9bH-benzo[e]indol-3-yl]-2-oxoethyl}-1λ^6-thiomorpholine-1,1-dione]
4 | 3.9 | [2H]C([2H])(Oc1ccc2c(c1)CC[C@H]1N(C(=O)[C@H]3CC[C@H](C(=O)O)CC3)CC[C@@]21S(=O)(=O)c1ccc(F)cc1)c1c(F)cccc1Cl [Example 222]
5 | 12 | (1R,4r)-4-((3aR,9bR)-7-((2-chloro-6-fluorobenzyl)oxy)-9b-((4-fluorophenyl)sulfonyl)-2,3,3a,4,5,9b-hexahydro-1H-benzo[e]indole-3-carbonyl)-1-methylcyclohexanecarboxylic acid [Example 8]

From patent US20230295087A1, “AGONISTS OF ROR GAMMAt” (BRISTOL-MYERS SQUIBB COMPANY, priority 2019, published 2023)
